# Assays:
# [1] = Cytotoxicity assay (MTS), GS4.1 cells; assay type: cell-based, human; settings: human, 3 days (NS4A-ELISA Assay)
# Experimental: (§1) The cytotoxicity assay measures the viability of cells after treatment with a test compound for 3 days in either GS4.1 cells or Zluc cells. […] The cytotoxicity assay is summarized as follows. Ninety-six-well tissue culture plates were seeded with GS4.1 or Zluc cells. Antiviral compound solutions were made up freshly in medium as 2×-concentrated stocks. Eight additional 3-fold drug dilutions were prepared from these stocks in medium for a total of 9 dilutions. At least four hours after the cells were seeded, drug treatment was initiated by adding one volume of each 2×-concentrated drug dilution to one volume of cells/medium in the tissue culture plates. Cells were then incubated for 3 days at 37° C./5% CO2. After 3 days of treatment, the CellTiter 96® Aqueous One Solution cell proliferation assay (Promega) was performed by adding the MTS solution to each well. The plates were then incubated at 37° C./5% CO2 for 3.5 hours. Plates were then read in a Victor^3V 1420 multilabel counter (Perkin Elmer) and CC50 concentrations were determined using Microsoft Excel and XLfit 4.1 software.
# [2] = Cytotoxicity assay (MTS), Zluc cells; assay type: cell-based, human; settings: human; Zluc cells, 3 days (Luciferase Assay columns)
# Experimental: as §1
# CYP3A4 = assay: Effect of CYP3A4 inhibitors (ketoconazole, ritonavir) on metabolic stability in rat liver microsomes; assay type: in vitro ADME; settings: rat microsomes 1 mg/mL, 60 min, 10 μM, NADPH
# Experimental: Incubations were conducted in a final volume of 0.1 mL per incubation time point. […] Final solvent (DMSO or methanol) concentration was maintained at 0.2%. Reactions were initiated by the addition of an NADPH regenerating system (1.3 mM NADP^+, 3.3 mM glucose-6-phosphate, 0.4 U/ml glucose-6-phosphate dehydrogenase, and 3.3 mM MgCl2, final concentrations). Incubations with no inhibitor served as control. Reactions were terminated at 30 min (monkey) or 60 min (rat and human) by the addition of 0.2 mL of stop solution (acetonitrile). The samples were vortex-mixed for 30 sec and then centrifuged at 10,000×g for 10 min. The supernatant was dried using a Labconco CentriVap concentrator and the dry residue reconstituted in water, transferred to an HPLC glass vial and analyzed by HPLC-UV method 1 (described above).
# Because Compound 1 is rapidly metabolized in monkey liver microsomes, incubation conditions were adjusted by reducing protein content to 0.5 mg/mL and incubation time to 30 min. Incubation conditions for rat and human were unchanged; protein was 1 mg/mL and incubation time was 60 min.
# [3] = Rat plasma pharmacokinetics of total radioactivity after [^14C]-Compound 1; assay type: in vivo, male Sprague-Dawley rats
# Experimental: A preliminary rat metabolism study was conducted with radiolabeled Compound 1. The compound was labeled with [^14C] in the C-8 position of the guanine moiety. The objectives of the study were to determine, 1) the plasma pharmacokinetics of total radioactivity, 2) the time-course of total radioactivity and the amount of 2′-C-methyl guanosine-5′-TP in liver, 3) the major route of excretion, and 4) the metabolic profile in excreta, liver, and plasma.
# Isotopically diluted [^14C]-Compound 1 was administered intravenously to male Sprague-Dawley rats at 50 mg/kg or by oral gavage at 100 mg/kg.
# The plasma concentration-time data for total radioactivity was analyzed using Microsoft® Office Excel 2003 to obtain the area under the concentration-time curve (AUC). AUC0-24 (area under the concentration-time curve from 0 to 24 h after dosing) was calculated using the linear trapezoidal rule and nominal sampling times. For the IV dose group, concentration at time zero was extrapolated from the concentration data for the first two time points. The maximum (peak) plasma concentrations (Cmax) and the time to peak concentrations (tmax) were the observed values. Descriptive statistics were prepared in Excel.
# Radioanalyses of plasma samples were conducted. The plasma concentration data for total radioactivity expressed as μg equivalents/mL are summarized below: […]
# [4] = system: HCV genotype 1b replicon (GS4.1 cells); assay: In vitro combination of Compound 1 and ribavirin on HCV replicon (NS4A ELISA; MacSynergy II, CombiTool, CalcuSyn); assay type: cell-based; settings: Hepatitis C virus, 72 h, single-drug titration experiments, three days
# Experimental: This setup was run in duplicate in each 96-well plate.
# Cells were incubated with inhibitors for three days at 37° C./5% CO2.
# After three days of drug treatment, media was removed from the plates via gentle tapping and the cells were fixed to the plates with 100 μL/well of 1:1 acetone:methanol.
# After one minute of incubation at room temperature, plates were washed three times with 100 μL/well of ELISA wash solution and then blocked with 150 μL/well of 10% FBS-TNE.
# After a one hour incubation period at 37° C., each plate was washed three times with 100 μL/well of ELISA wash solution. Color development was then initiated with 100 μL/well of OPD solution.
# After a 30 minute incubation period in the dark at room temperature, reactions were stopped by adding 100 μL of 2NH2SO4 to each well.
# The absorbance was measured at 490 nm on a Victor^3 V 1420 multilabel counter (Perkin Elmer).
# [5] = Cytotoxicity (MTS assay), GS4.1 cells, Example 18; assay type: cell-based, human; settings: human, GS4.1 cells (wild-type); GS4.1 (wild-type), MTS assay, N = 3
# Experimental: (§2) Cells were plated and treated with inhibitors as described above.
# GS4.1 cells = assay: Cytotoxicity (MTS assay), GS4.1 cells, Example 18; assay type: cell-based, human; settings: wild-type or S282T replicon cells treated with up to 100 μM
# Experimental: as §2
# [6] = Cytotoxicity (MTS assay), 184R-D2 cells; assay type: cell-based; settings: human, 184R-D2 cells (S282T), 184R-D2 (S282T), N = 3
# Experimental: as §2
smiles,measurement,setting,value
"CC(C)(CO)C(=O)SCCOP(=O)(NCc1ccccc1)OC[C@H]1O[C@@H](n2cnc3c(=O)[nH]c(N)nc32)[C@](C)(O)[C@@H]1O (mixture of isomers) [Compound 1, 3-hydroxy-2,2-dimethyl-thiopropionic acid S-(2-{[(2R,3R,4R,5R)-5-(2-amino-6-oxo-1,6-dihydro-purin-9-yl)-3,4-dihydroxy-4-methyl-tetrahydro-furan-2-ylmethoxy]-benzylamino-phosphoryloxy}-ethyl) ester]",CC50 at 3 days,[1],> 100 µM
same,CC50 at 3 days,[2],> 100 µM
same,% Residual Compound 1,CYP3A4; Ketoconazole 0.1 μM,83%
same,% Residual Compound 1,CYP3A4; Ketoconazole 1 μM,120%
same,% Residual Compound 1,CYP3A4; Ritonavir 0.1 μM,101%
same,% Residual Compound 1,CYP3A4; Ritonavir 1 μM,123%
same,% Residual Compound 1,CYP3A4; inhibitor 0 μM,86%
same,AUC0-24 of plasma total radioactivity,[3]; IV 50 mg/kg [^14C]-Compound 1,36.0 hr.μg equivalent/mL
same,AUC0-24 of plasma total radioactivity,[3]; PO 100 mg/kg [^14C]-Compound 1,15.4 hr.μg equivalent/mL
same,EC50,[4],400 ± 90 nM
same,CC50 at 3 days,[5],> 100 µM
same,in vitro cytotoxicity (MTS),GS4.1 cells,no evidence of in vitro cytotoxicity
same,CC50 at 3 days,[6],> 100 µM

# From US20100003217A1, “Compounds and Pharmaceutical Compositions for the Treatment of Viral Infections” (priority 2008, published 2010)
